# Experimental data from US4061645A, “2-Trichloromethyl-5-methylsulfinyl-1,3,4-thiadiazole” (Schering Aktiengesellschaft, priority 1972, dated 1977).
# Read-outs that look alike come from different tables or passages of the source.
# How the values were obtained:
# Rhizoctonia solani [1] = assay: Limit concentration of soil-fungicidal effectiveness, Rhizoctonia solani, infested soil seeded with peas (Example 1); assay type: in vivo; conditions: for minimal effective concentration: soil, 480 h, read-out: Limit concentration of the fungicidal effectiveness
# In short: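 Compound mixed homogeneously into steamed compost soil inoculated with Rhizoctonia solani mycelium, and 25 marrow pea seeds ("Miracle of Kelvedon") sown per concentration without a waiting period. Grown 20 to 23 days at 22°-25° C. Limit concentration is the lowest giving sound, necrosis-free roots and at least 90% germination relative to steamed soil.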
# [2] = test system: Fusarium oxysporum f. callistephi; assay: Fusarium infested compost soil, Callistephus chinesis seedlings (Example 5); assay type: in vivo; conditions: of 4 seedlings
# Text: Steamed compost soil was inoculated with a spore suspension of Fusarium oxysporum f. callistephi. After homogeneous mixture of the products with the infested soil, the products were present as 20% powder preparations, and after a waiting period of 8 days, there were set out per concentration 4 seedlings of Callistephus chinesis, master aster "Sun Ray" as host plants.
# Rhizoctonia solani [3] = assay: Rhizoctonia solani infested compost soil, marrow peas (Example 3); assay type: in vivo; conditions: for Weight of fresh plant / Root evaluation (1-4): 3 weeks; for Number of sound peas after 3 wks.: of 25 grains
# Text: Steamed compost soil was inoculated with mycelium of Rhizoctonia solani. After homogeneous mixture of the products with the infested soil, the products were present in the form of 20% powder preparations, the seeding of 25 grains of marrow peas of the variety "Miracle of Kelvedon" per concentration was effected without waiting period in clay dishes holding 1 liter of soil. The table lists the number of germinated sound peas, the weight of the fresh plant, and a root evaluation after a cultivation period of three weeks at 22°-25° C.
# Pythium ultimum [4] = assay: Pythium ultimum infested compost soil, marrow peas (Example 2); assay type: in vivo; conditions: for Number of sound peas after 3 wks.: of 25 grains
# Text: Steamed compost soil was inoculated with mycelium of Pythium ultimum.
# Pythium ultimum [5] = assay: Limit concentration of soil-fungicidal effectiveness, Pythium ultimum, infested soil seeded with peas (Example 1); assay type: in vivo; conditions: 20 to 23 days, 22°-25° C
# Method: Limit concentrations of the soil-fungicidal effectiveness at homogeneous mixture of the products with the infested soil. Basic condition in the evaluation are a sound root formation without fungus necroses and germination of the seed of at least 90% compared with the result obtained in steamed soil. Per concentration there were seeded 25 grains of peas of the variety "Miracle of Kelvedon" (marrow pea) without a waiting period. The cultivation time in the tests was 20 to 23 days at a temperature of 22°-25° C. Four commercial products were included in the test series.
# Pythium ultimum: -- Steamed compost soil was inoculated with mycelium of Pythium ultimum
# Meloidogyne incognita = assay: Nematocidal action, infested compost soil, cucumber seeds (Example 8); assay type: in vivo; conditions: 30 days
# Method: The products as 20% powder preparations were homogeneously admixed with a compost soil heavily infested by root gal nematodes. Without a waiting period, 20 cucumber seeds per concentration were seeded. After a cultivation time of 30 days at a temperature of 23°-25° C, the nematocidal action was evaluated by counting the root galls formed in the waterbath. The following table states the reduction of attack in percent. In the control, an average of 90 root galls per seedling had formed.
# Stemphylium ilicis = assay: Agar test (Example 7), Stemphylium; assay type: cell-based; conditions: 10 ppm; 5 days at 22° C; control 100
# Method: (§1) The fungicidal action of the agents according to the invention was tested in artificial nutrient media against plant-pathogenic fungi in Petri dishes (agar test). The procedure was to sterilize the medium consisting of 2% malt extract and 1.5% agar-agar powder. Before the solidification of the medium, the active substances were added to it, mixing thoroughly, so that the medium received 10 parts of active substance per million (ppm). After the solidification of the medium, the latter was inoculated with a platinum dropper which contained 100 spores each of the fungi to be tested, and after five days at 22° C, an evaluation was made by measuring the diameter of the colonies in mm.
# Damping-off Fungi = assay: Cotton seed disinfection, normal compost soil (Example 6); assay type: in vivo; conditions: 100 mg active ingr. per kg of seed; 10% formulation; 15 days
# Method: Cotton seeds disinfected with 10% formulations were seeded in normal compost soil (Damping-off Fungi), 25 grains per concentration. After a cultivation time of 15 days at 22°-25° C, the number of germinated sound cotton seedlings and their weight as fresh plants were determined.
# Helminthosporium sativum = assay: Agar test (Example 7), Helminthosporium; assay type: cell-based; conditions: 10 ppm; 5 days at 22° C; control 100
# Method: as §1
# Asperqilus niger = assay: Agar test (Example 7), Aspergillus; assay type: cell-based; conditions: 10 ppm; 5 days at 22° C; control 100
# Method: as §1
# [6] = test system: Colletotrichum gloeosporioides; assay: Agar test (Example 7), Colletotrichum; assay type: cell-based; conditions: 10 ppm; 5 days at 22° C; control 100
# Method: as §1
# Pythium ultimum [7] = assay: Fungistatic and fungicidal action on Pythium ultimum with varying active ingredient percentages (Example 4); assay type: in vivo
# Text: Comparison of the fungistatic and fungicidal action on Pythium ultimum when using preparations with varyng active ingredient percentages on siliceous clay. Steamed compost soil was inoculated with mycelium of Pythium ultimum. After forming a homogeneous mixture of the products with the infested soil, […], the seeding of 25 grains of marrow peas of the variety "Miracle of Kelvedon" per concentration in clay dishes holding 1 liter of soil followed without a waiting period. In the table is stated the fresh number of germinated sound peas, the weight of the fresh plant, and a root evaluation after a cultivation period of three weeks at 22°-25° C.
# Botrytis cinerea = assay: Agar test (Example 7), Botrytis; assay type: cell-based; conditions: 10 ppm; 5 days at 22° C; control 100
# Method: as §1
# Pyrenochaeta lycopersici = assay: Control of Pyrenochaeta lycopersici, corky root disease of the tomato, open field (Example 9); assay type: in vivo; conditions: 10% granulate
# Text: Control of Pyrenochaeta lycopersici, corky root disease of the tomato.
# On a naturally invested open field area, 2-dichloromethyl-5-methylsulfonyl-1,3,4-thiadiazole was scattered as a 10% granulate formulation and hoed in 20 cm deep. […] After a reaction period of three weeks, tomato plants of the variety "Ronald-M" which were 8 weeks old were set out at a distance from each other of 50 × 70 cm. The harvest results indicated in the table are average values of 40 plants per lot and refer to harvested ripe tomatoes.
# [8] = 50 mg active ingredient per liter of soil
# [9] = 100 mg active ingredient per liter of soil
# [10] = 10 mg active ingr. per liter of soil
# [11] = 20 mg active ingr. per liter of soil
# [12] = 30 mg active ingr. per liter of soil
# [13] = 40 mg active ingr. per liter of soil
# [14] = 200 mg active ingr. per liter of soil, 3 weeks
# [15] = 5% formulation, 6 mg active ingr. per liter of soil
# [16] = 5% formulation, 10 mg active ingr. per liter of soil
# [17] = 10% formulation, 6 mg active ingr. per liter of soil
# [18] = 10% formulation, 10 mg active ingr. per liter of soil
# [19] = 20% formulation, 6 mg active ingr. per liter of soil
# [20] = 20% formulation, 10 mg active ingr. per liter of soil
# [21] = 10 g active ingr. per square meter
# [22] = 20 g active ingr. per square meter
# [23] = 50 mg active ingr. per liter of soil
# [24] = 100 mg active ingr. per liter of soil
structure (smiles),measurement,setting,value
"COc1cc(Cl)c(OC)cc1Cl [1,4-dichloro-2,5-dimethoxy-benzene, 1,4-dichloro-2,5-dimethoxybenzene, reference compound]",minimal effective concentration,Rhizoctonia solani [1],30 µg/mL
same,Number of attacked plants after 3 weeks,[2]; [8],4
same,Number of attacked plants after 3 weeks,[2]; [9],4
same,Number of attacked plants after 3 weeks,[2]; 200 mg active ingredient per liter of soil,4
same,Weight of fresh plant,Rhizoctonia solani [3]; [10],0 g
same,Number of sound peas after 3 wks.,Rhizoctonia solani [3]; [10],0
same,Weight of fresh plant,Rhizoctonia solani [3]; [11],0 g
same,Number of sound peas after 3 wks.,Rhizoctonia solani [3]; [11],0
same,Root evaluation (1-4),Rhizoctonia solani [3]; [12],4
same,Weight of fresh plant,Rhizoctonia solani [3]; [12],18 g
same,Number of sound peas after 3 wks.,Rhizoctonia solani [3]; [12],21
same,Root evaluation (1-4),Rhizoctonia solani [3]; [13],4
same,Weight of fresh plant,Rhizoctonia solani [3]; [13],18 g
same,Number of sound peas after 3 wks.,Rhizoctonia solani [3]; [13],22
same,Root evaluation (1-4),Pythium ultimum [4]; [14],1
same,Weight of fresh plant,Pythium ultimum [4]; [14],1 g
same,Number of sound peas after 3 wks.,Pythium ultimum [4]; 200 mg active ingr. per liter of soil,2
same,Limit concentration of the fungicidal effectiveness,Pythium ultimum [5],insufficient
"CS(=O)(=O)c1nnc(C(Cl)Cl)s1 [Compound 17, 2-dichloromethyl-5-methylsulfonyl-1,3,4-thiadiazole]",Nematocidal action in % (reduction of attack),Meloidogyne incognita; 40 mg per liter of soil,90%
same,Nematocidal action in % (reduction of attack),Meloidogyne incognita; 60 mg per liter of soil,94%
same,diameter of the colonies,Stemphylium ilicis,0 mm
same,minimal effective concentration,"Rhizoctonia solani [1]; 20 to 23 days, 22°-25° C",20 µg/mL
same,Number of attacked plants after 3 weeks,[2]; [8],0
same,Number of attacked plants after 3 weeks,[2]; [9],0
same,Sound plants in %,Damping-off Fungi,100%
same,Weight of fresh plant,Damping-off Fungi,23 g
same,diameter of the colonies,Helminthosporium sativum,0 mm
same,Weight of fresh plant,Rhizoctonia solani [3]; [10],0 g
same,Number of sound peas after 3 wks.,Rhizoctonia solani [3]; [10],0
same,Weight of fresh plant,Rhizoctonia solani [3]; [11],14 g
same,Number of sound peas after 3 wks.,Rhizoctonia solani [3]; [11],23
same,Weight of fresh plant,Rhizoctonia solani [3]; [12],14 g
same,Number of sound peas after 3 wks.,Rhizoctonia solani [3]; [12],22
same,diameter of the colonies,Asperqilus niger,0 mm
same,diameter of the colonies,[6],0 mm
same,Number of sound peas after 3 weeks,Pythium ultimum [7]; [15],12
same,Root evaluation (1-4),Pythium ultimum [7]; [15],1
same,Weight of fresh plant,Pythium ultimum [7]; [15],9 g
same,Number of sound peas after 3 weeks,Pythium ultimum [7]; [16],24
same,Root evaluation (1-4),Pythium ultimum [7]; [16],4
same,Weight of fresh plant,Pythium ultimum [7]; [16],20 g
same,Number of sound peas after 3 weeks,Pythium ultimum [7]; [17],24
same,Root evaluation (1-4),Pythium ultimum [7]; [17],1
same,Weight of fresh plant,Pythium ultimum [7]; [17],15 g
same,Number of sound peas after 3 weeks,Pythium ultimum [7]; [18],22
same,Root evaluation (1-4),Pythium ultimum [7]; [18],4
same,Weight of fresh plant,Pythium ultimum [7]; [18],24 g
same,Number of sound peas after 3 weeks,Pythium ultimum [7]; [19],22
same,Root evaluation (1-4),Pythium ultimum [7]; [19],2
same,Weight of fresh plant,Pythium ultimum [7]; [19],17 g
same,Number of sound peas after 3 weeks,Pythium ultimum [7]; [20],24
same,Root evaluation (1-4),Pythium ultimum [7]; [20],4
same,Weight of fresh plant,Pythium ultimum [7]; [20],16 g
same,diameter of the colonies,Botrytis cinerea,0 mm
same,Weight of fresh plant,"Pythium ultimum [4]; 10 mg active ingr. per liter of soil, 3 weeks",24 g
same,Number of sound peas after 3 wks.,Pythium ultimum [4]; [10],23
same,Weight of fresh plant,"Pythium ultimum [4]; 20 mg active ingr. per liter of soil, 3 weeks",22 g
same,Number of sound peas after 3 wks.,Pythium ultimum [4]; [11],24
same,Weight of fresh plant,"Pythium ultimum [4]; 30 mg active ingr. per liter of soil, 3 weeks",26 g
same,Number of sound peas after 3 wks.,Pythium ultimum [4]; [12],24
same,"Tomatoes per plant, relative to 0 g",Pyrenochaeta lycopersici; [21],159%
same,"Weight of single tomato, relative to 0 g",Pyrenochaeta lycopersici; [21],110%
same,"Yield per plant, relative to 0 g",Pyrenochaeta lycopersici; [21],171%
same,"Tomatoes per plant, relative to 0 g",Pyrenochaeta lycopersici; [22],165%
same,"Weight of single tomato, relative to 0 g",Pyrenochaeta lycopersici; [22],130%
same,"Yield per plant, relative to 0 g",Pyrenochaeta lycopersici; [22],213%
"CC(C)CC(Br)c1nnc(S(C)(=O)=O)s1 (stereo not drawn) [Compound 53, 2-(1-bromoisopentyl)-5-methylsulfonyl-1,3,4-thiadiazole]",minimal effective concentration,"Rhizoctonia solani [1]; 20 to 23 days, 22°-25° C",100 µg/mL
same,Limit concentration of the fungicidal effectiveness,Pythium ultimum [5],no effect
CS(=O)(=O)c1nnc(C(F)(F)Cl)s1 [Compound 54],Limit concentration of the fungicidal effectiveness,"Rhizoctonia solani [1]; 20 to 23 days, 22°-25° C",20 mg of active substance per lit
same,Limit concentration of the fungicidal effectiveness,Pythium ultimum [5],10 mg of active substance per lit
C[S+]([O-])c1nnc(C(F)(F)Cl)s1 (stereo not drawn) [Compound 55],Limit concentration of the fungicidal effectiveness,"Rhizoctonia solani [1]; 20 to 23 days, 22°-25° C",10 mg of active substance per lit
same,Limit concentration of the fungicidal effectiveness,Pythium ultimum [5],10 mg of active substance per lit
"O=[N+]([O-])c1c(Cl)c(Cl)c(Cl)c(Cl)c1Cl [Pentachloronitrobenzene, pentachloronitrobenzene, reference compound]",minimal effective concentration,Rhizoctonia solani [1],75 µg/mL
same,Weight of fresh plant,Rhizoctonia solani [3]; [23],4 g
same,Number of sound peas after 3 wks.,Rhizoctonia solani [3]; [23],4
same,Weight of fresh plant,Rhizoctonia solani [3]; [24],15 g
same,Number of sound peas after 3 wks.,Rhizoctonia solani [3]; [24],25
same,Limit concentration of the fungicidal effectiveness,Pythium ultimum [5],insufficient
